In US12668585B2, “Substituted pyrimidinyl-pyrazoles as CDK2 inhibitors” (BLUEPRINT MEDICINES CORPORATION, priority 2021, dated 2026):

Columns and labels:
[1] = molecular target: T1, CDK1/Cyclin B1, GST-tag (Homo sapiens, UniProt P06493); assay: Biochemical CDK inhibition assay (Caliper mobility shift), CDK1/Cyclin B1
T1 construct: GST; purchased BPS 40454
Protocol: (§1) Inhibitory effects of the compounds of the disclosure were measured in biochemical assays that measure the enzymatic phosphorylation activity of CDK enzyme in complex of Cyclin proteins phosphorylates 7.5 micromolar fluorescently labelled peptide substrate, 5-FAM-QSPKKG-CONH2, (FL-Peptide 18, Perkin Elmer, 760362) in the presence of adenosine-5′-triphosphate (ATP) and varying concentrations of the test compound in 100 mM 2-[4-(2-hydroxyethyl)piperazin-1-yl] ethanesulfonic acid (HEPES), pH 7.5, 10 mM MgCl2, 0.015% Brij-35, 1 mM dithiothreitol (DTT), 1.0% dimehylsulfoxide (DMSO). […] Reactions proceeded until between 10% to 20% total peptides were phosphorylated at room temperature (25° C.) and were terminated with 35 mM 2,2′,2″,2′″-(ethane-1,2-diyldinitrilo)tetraacetic acid (EDTA). Product was detected using the Caliper mobility shift detection method where the phosphorylated peptide (product) and substrate were electrophoretically separated and measured. Percent activity was plotted against log concentration of compound and points to generate an apparent IC50. The following CDK enzymes in complex with different cyclin proteins were used in these assays: • CDK1/Cyclin B1, GST-tag (BPS, 40454), 1.5 nM used in the assay • CDK2/Cyclin E (Eurofins, 14-475), 1.25 nM used in the assays
(§2) For inhibitory activity against CDK2/Cyclin E mutant, the following designations are used: ≤10 nM=A; >10-20 nM=B; >20-30 nM=C; >30-100 nM=D and >100=E. For inhibition CDK1/Cyclin B1, GST-tag: ≥500 nM=A; <100-500 nM=B; <100 nM=C.

[2] = molecular target: T2, CDK2/Cyclin E (Homo sapiens, UniProt P24941); assay: Biochemical CDK inhibition assay (Caliper mobility shift), CDK2/Cyclin E; details: read-out: CDK2/cyclin E1 IC50
T2 construct: purchased Eurofins 14-475
Protocol: as §1, §2

T1 sequence (P06493 whole entry): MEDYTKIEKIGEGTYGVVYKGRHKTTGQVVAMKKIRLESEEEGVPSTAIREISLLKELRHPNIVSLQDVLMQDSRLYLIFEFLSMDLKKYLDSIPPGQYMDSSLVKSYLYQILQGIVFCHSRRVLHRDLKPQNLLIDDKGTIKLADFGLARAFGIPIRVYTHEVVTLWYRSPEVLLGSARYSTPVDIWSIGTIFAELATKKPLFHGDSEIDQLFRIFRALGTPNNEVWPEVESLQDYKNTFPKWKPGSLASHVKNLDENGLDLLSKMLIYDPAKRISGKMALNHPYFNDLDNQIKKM
T1 sequence (P14635 whole entry partner): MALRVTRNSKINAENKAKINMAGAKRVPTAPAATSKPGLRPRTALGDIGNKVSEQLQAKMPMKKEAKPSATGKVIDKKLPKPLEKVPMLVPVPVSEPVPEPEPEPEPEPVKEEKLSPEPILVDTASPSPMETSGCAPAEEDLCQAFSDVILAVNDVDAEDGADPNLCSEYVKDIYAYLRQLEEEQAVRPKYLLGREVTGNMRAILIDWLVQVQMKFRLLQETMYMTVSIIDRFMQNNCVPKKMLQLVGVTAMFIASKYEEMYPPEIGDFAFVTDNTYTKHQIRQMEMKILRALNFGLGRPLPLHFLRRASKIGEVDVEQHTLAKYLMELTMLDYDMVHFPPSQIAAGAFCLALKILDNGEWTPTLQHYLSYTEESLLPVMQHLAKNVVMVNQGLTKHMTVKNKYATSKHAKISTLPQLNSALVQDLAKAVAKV

SMILES | IC50 [1] [nM] | IC50 [2] [nM]
NS(=O)(=O)c1ccc(Nc2ncc(C(F)(F)F)c(-c3cnn(C4(CO)CC4)c3)n2)c(F)c1 [Example 16, 3-fluoro-4-((4-(1-(1-(hydroxymethyl)cyclopropyl)-1H-pyrazol-4-yl)-5-(trifluoromethyl)pyrimidin-2-yl)amino)benzenesulfonamide] | 100 to 500 | ≤ 10
Cc1cnc(Nc2ccc(S(N)(=O)=O)cc2)nc1-c1cnn(CC(C)(C)O)c1 [Example 17, 4-((4-(1-(2-hydroxy-2-methylpropyl)-1H-pyrazol-4-yl)-5-methylpyrimidin-2-yl)amino)benzenesulfonamide] | 100 to 500 | ≤ 10
CC(C)(O)Cn1cc(-c2nc(Nc3ccc(S(N)(=O)=O)cc3)ncc2F)cn1 [Example 18, 4-((5-fluoro-4-(1-(2-hydroxy-2-methylpropyl)-1H-pyrazol-4-yl)pyrimidin-2-yl)amino)benzenesulfonamide] | < 100 | ≤ 10
C[C@@H](O)Cn1cc(-c2nc(Nc3ccc(S(N)(=O)=O)cc3F)ncc2C(F)(F)F)cn1 [Example 20, (R)-3-fluoro-4-((4-(1-(2-hydroxypropyl)-1H-pyrazol-4-yl)-5-(trifluoromethyl)pyrimidin-2-yl)amino)benzenesulfonamide] | 100 to 500 | ≤ 10
Cc1c(S(N)(=O)=O)ccc(Nc2ncc(C(F)(F)F)c(-c3cnn(CC(C)(C)O)c3)n2)c1F [Example 21, 3-fluoro-4-((4-(1-(2-hydroxy-2-methylpropyl)-1H-pyrazol-4-yl)-5-(trifluoromethyl)pyrimidin-2-yl)amino)-2-methylbenzenesulfonamide] | 100 to 500 | ≤ 10
CC(C)(CO)n1cc(-c2nc(Nc3ccc(S(N)(=O)=O)cc3F)ncc2C(F)(F)F)cn1 [Example 22, 3-fluoro-4-((4-(1-(1-hydroxy-2-methylpropan-2-yl)-1H-pyrazol-4-yl)-5-(trifluoromethyl)pyrimidin-2-yl)amino)benzenesulfonamide] | 100 to 500 | ≤ 10
COc1cc(S(N)(=O)=O)ccc1Nc1ncc(C(F)(F)F)c(-c2cnn(CC(C)(C)O)c2)n1 [Example 27, 4-((4-(1-(2-hydroxy-2-methylpropyl)-1H-pyrazol-4-yl)-5-(trifluoromethyl)pyrimidin-2-yl)amino)-3-methoxybenzenesulfonamide] | 100 to 500 | ≤ 10
NS(=O)(=O)c1ccc(Nc2ncc(C(F)(F)F)c(-c3cnn(CC(O)C4CC4)c3)n2)c(F)c1 (centres unmarked) [Example 32, 4-((4-(1-(2-cyclopropyl-2-hydroxyethyl)-1H-pyrazol-4-yl)-5-(trifluoromethyl)pyrimidin-2-yl)amino)-3-fluorobenzenesulfonamide] | ≥ 500 | 10 to 20
N#Cc1cnc(Nc2ccc(S(N)(=O)=O)cc2)nc1-c1cnn(CCO)c1 [Example 34, 4-((5-cyano-4-(1-(2-hydroxyethyl)-1H-pyrazol-4-yl)pyrimidin-2-yl)amino)benzenesulfonamide] | 100 to 500 | 10 to 20
C[C@H](O)Cn1cc(-c2nc(Nc3ccc(S(N)(=O)=O)cc3F)ncc2C(F)(F)F)cn1 [Example 35, (S)-3-fluoro-4-((4-(1-(2-hydroxypropyl)-1H-pyrazol-4-yl)-5-(trifluoromethyl)pyrimidin-2-yl)amino)benzenesulfonamide] | ≥ 500 | 10 to 20
Cc1cc(Nc2ncc(C(F)(F)F)c(-c3cnn(CC(C)(C)O)c3)n2)cc(C)c1S(N)(=O)=O [Example 37, 4-((4-(1-(2-hydroxy-2-methylpropyl)-1H-pyrazol-4-yl)-5-(trifluoromethyl)pyrimidin-2-yl)amino)-2,6-dimethylbenzenesulfonamide] | 100 to 500 | 10 to 20
CC(C)(O)Cn1cc(-c2nc(Nc3ccc(S(N)(=O)=O)c(Cl)c3F)ncc2C(F)(F)F)cn1 [Example 38, 2-chloro-3-fluoro-4-((4-(1-(2-hydroxy-2-methylpropyl)-1H-pyrazol-4-yl)-5-(trifluoromethyl)pyrimidin-2-yl)amino)benzenesulfonamide] | ≥ 500 | 10 to 20
N#Cc1cnc(Nc2ccc(S(N)(=O)=O)cc2)nc1-c1cnn(C2COC2)c1 [Example 39, 4-((5-cyano-4-(1-(oxetan-3-yl)-1H-pyrazol-4-yl)pyrimidin-2-yl)amino)benzenesulfonamide] | ≥ 500 | 10 to 20
COc1c(S(N)(=O)=O)ccc(Nc2ncc(C(F)(F)F)c(-c3cnn(CC(C)(C)O)c3)n2)c1F [Example 40, 3-fluoro-4-((4-(1-(2-hydroxy-2-methylpropyl)-1H-pyrazol-4-yl)-5-(trifluoromethyl)pyrimidin-2-yl)amino)-2-methoxybenzenesulfonamide] | ≥ 500 | 10 to 20
NS(=O)(=O)c1ccc(Nc2ncc(C(F)(F)F)c(-c3cnn(CC4(O)COC4)c3)n2)c(F)c1 [Example 41, 3-fluoro-4-((4-(1-((3-hydroxyoxetan-3-yl)methyl)-1H-pyrazol-4-yl)-5-(trifluoromethyl)pyrimidin-2-yl)amino)benzenesulfonamide] | ≥ 500 | 10 to 20
NS(=O)(=O)c1ccc(Nc2ncc(C(F)(F)F)c(-c3cnn(C4COC4)c3)n2)c(F)c1 [Example 43, 3-fluoro-4-((4-(1-(oxetan-3-yl)-1H-pyrazol-4-yl)-5-(trifluoromethyl)pyrimidin-2-yl)amino)benzenesulfonamide] | ≥ 500 | 20 to 30
Cc1cc(Nc2ncc(C(F)(F)F)c(-c3cnn(CC(C)(C)O)c3)n2)c(F)cc1S(N)(=O)=O [Example 45, 5-fluoro-4-((4-(1-(2-hydroxy-2-methylpropyl)-1H-pyrazol-4-yl)-5-(trifluoromethyl)pyrimidin-2-yl)amino)-2-methylbenzenesulfonamide] | ≥ 500 | 20 to 30

The next lines start with the values.

IC50 [1] [nM] | IC50 [2] [nM] | SMILES
100 to 500 | ≤ 10 | CC(C)(O)Cn1cc(-c2nc(Nc3ccc(S(N)(=O)=O)cc3F)ncc2C(F)F)cn1 [Example 11, 4-((5-(difluoromethyl)-4-(1-(2-hydroxy-2-methylpropyl)-1H-pyrazol-4-yl)pyrimidin-2-yl)amino)-3-fluorobenzenesulfonamide]
< 100 | ≤ 10 | Cc1cc(S(N)(=O)=O)ccc1Nc1ncc(Cl)c(-c2cnn(CC(C)(C)O)c2)n1 [Example 14]
100 to 500 | ≤ 10 | CC(C)(O)Cn1cc(-c2nc(Nc3ccc(S(N)(=O)=O)cc3F)ncc2C#N)cn1 [Example 19, 4-((5-cyano-4-(1-(2-hydroxy-2-methylpropyl)-1H-pyrazol-4-yl)pyrimidin-2-yl)amino)-3-fluorobenzenesulfonamide]
100 to 500 | ≤ 10 | CC(C)(O)Cn1cc(-c2nc(Nc3ccc(S(N)(=O)=O)cc3Cl)ncc2Cl)cn1 [Example 23, 3-chloro-4-((5-chloro-4-(1-(2-hydroxy-2-methylpropyl)-1H-pyrazol-4-yl)pyrimidin-2-yl)amino)benzenesulfonamide]
100 to 500 | ≤ 10 | CCc1cnc(Nc2ccc(S(N)(=O)=O)cc2)nc1-c1cnn(CC(C)(C)O)c1 [Example 24, 4-((5-ethyl-4-(1-(2-hydroxy-2-methylpropyl)-1H-pyrazol-4-yl)pyrimidin-2-yl)amino)benzenesulfonamide]
100 to 500 | ≤ 10 | COc1cc(S(N)(=O)=O)ccc1Nc1ncc(Cl)c(-c2cnn(CC(C)(C)O)c2)n1 [Example 28, 4-((5-chloro-4-(1-(2-hydroxy-2-methylpropyl)-1H-pyrazol-4-yl)pyrimidin-2-yl)amino)-3-methoxybenzenesulfonamide]
100 to 500 | ≤ 10 | CC(C)(O)Cn1cc(-c2nc(Nc3ccc(S(N)(=O)=O)cc3F)ncc2F)cn1 [Example 30, 3-fluoro-4-((5-fluoro-4-(1-(2-hydroxy-2-methylpropyl)-1H-pyrazol-4-yl)pyrimidin-2-yl)amino)benzenesulfonamide]
100 to 500 | ≤ 10 | Cc1cc(S(N)(=O)=O)ccc1Nc1ncc(F)c(-c2cnn(CC(C)(C)O)c2)n1 [Example 31, 4-((5-fluoro-4-(1-(2-hydroxy-2-methylpropyl)-1H-pyrazol-4-yl)pyrimidin-2-yl)amino)-3-methylbenzenesulfonamide]
≥ 500 | 10 to 20 | Cc1cnc(Nc2ccc(S(N)(=O)=O)cc2F)nc1-c1cnn(CC(C)(C)O)c1 [Example 36, 3-fluoro-4-((4-(1-(2-hydroxy-2-methylpropyl)-1H-pyrazol-4-yl)-5-methylpyrimidin-2-yl)amino)benzenesulfonamide]
≥ 500 | 20 to 30 | CCc1cnc(Nc2ccc(S(N)(=O)=O)cc2F)nc1-c1cnn(CC(C)(C)O)c1 [Example 42, 4-((5-ethyl-4-(1-(2-hydroxy-2-methylpropyl)-1H-pyrazol-4-yl)pyrimidin-2-yl)amino)-3-fluorobenzenesulfonamide]
≥ 500 | 20 to 30 | CC(C)(O)Cn1cc(-c2nc(Nc3ccc(S(N)(=O)=O)cc3Cl)ncc2F)cn1 [Example 44, 3-chloro-4-((5-fluoro-4-(1-(2-hydroxy-2-methylpropyl)-1H-pyrazol-4-yl)pyrimidin-2-yl)amino)benzenesulfonamide]
